{
  "source": "patent US20160199500A1",
  "about": "“COMPOSITIONS COMPRISING VITAMIN B12 AND INTRINSIC FACTOR AND METHODS OF USE THEREOF” (Syracuse University, priority 2013, published 2016)",
  "key": {"[1]": {"details": "pre injection of 50 mg two minutes before an 125I-labeled conjugate, mice; cited from earlier work"}, "[2]": {"tested_on": "BeWo cells (cubilin receptor)", "test": "Uptake and internalization in BeWo cells by confocal microscopy", "type": "cell-based", "details": "conjugates incubated with IF"}, "cubilin (CUBN)": {"biological_target": "cubilin (CUBN) (Homo sapiens, UniProt O60494+P27352)", "sequence (O60494 36-3623, species assumed)": "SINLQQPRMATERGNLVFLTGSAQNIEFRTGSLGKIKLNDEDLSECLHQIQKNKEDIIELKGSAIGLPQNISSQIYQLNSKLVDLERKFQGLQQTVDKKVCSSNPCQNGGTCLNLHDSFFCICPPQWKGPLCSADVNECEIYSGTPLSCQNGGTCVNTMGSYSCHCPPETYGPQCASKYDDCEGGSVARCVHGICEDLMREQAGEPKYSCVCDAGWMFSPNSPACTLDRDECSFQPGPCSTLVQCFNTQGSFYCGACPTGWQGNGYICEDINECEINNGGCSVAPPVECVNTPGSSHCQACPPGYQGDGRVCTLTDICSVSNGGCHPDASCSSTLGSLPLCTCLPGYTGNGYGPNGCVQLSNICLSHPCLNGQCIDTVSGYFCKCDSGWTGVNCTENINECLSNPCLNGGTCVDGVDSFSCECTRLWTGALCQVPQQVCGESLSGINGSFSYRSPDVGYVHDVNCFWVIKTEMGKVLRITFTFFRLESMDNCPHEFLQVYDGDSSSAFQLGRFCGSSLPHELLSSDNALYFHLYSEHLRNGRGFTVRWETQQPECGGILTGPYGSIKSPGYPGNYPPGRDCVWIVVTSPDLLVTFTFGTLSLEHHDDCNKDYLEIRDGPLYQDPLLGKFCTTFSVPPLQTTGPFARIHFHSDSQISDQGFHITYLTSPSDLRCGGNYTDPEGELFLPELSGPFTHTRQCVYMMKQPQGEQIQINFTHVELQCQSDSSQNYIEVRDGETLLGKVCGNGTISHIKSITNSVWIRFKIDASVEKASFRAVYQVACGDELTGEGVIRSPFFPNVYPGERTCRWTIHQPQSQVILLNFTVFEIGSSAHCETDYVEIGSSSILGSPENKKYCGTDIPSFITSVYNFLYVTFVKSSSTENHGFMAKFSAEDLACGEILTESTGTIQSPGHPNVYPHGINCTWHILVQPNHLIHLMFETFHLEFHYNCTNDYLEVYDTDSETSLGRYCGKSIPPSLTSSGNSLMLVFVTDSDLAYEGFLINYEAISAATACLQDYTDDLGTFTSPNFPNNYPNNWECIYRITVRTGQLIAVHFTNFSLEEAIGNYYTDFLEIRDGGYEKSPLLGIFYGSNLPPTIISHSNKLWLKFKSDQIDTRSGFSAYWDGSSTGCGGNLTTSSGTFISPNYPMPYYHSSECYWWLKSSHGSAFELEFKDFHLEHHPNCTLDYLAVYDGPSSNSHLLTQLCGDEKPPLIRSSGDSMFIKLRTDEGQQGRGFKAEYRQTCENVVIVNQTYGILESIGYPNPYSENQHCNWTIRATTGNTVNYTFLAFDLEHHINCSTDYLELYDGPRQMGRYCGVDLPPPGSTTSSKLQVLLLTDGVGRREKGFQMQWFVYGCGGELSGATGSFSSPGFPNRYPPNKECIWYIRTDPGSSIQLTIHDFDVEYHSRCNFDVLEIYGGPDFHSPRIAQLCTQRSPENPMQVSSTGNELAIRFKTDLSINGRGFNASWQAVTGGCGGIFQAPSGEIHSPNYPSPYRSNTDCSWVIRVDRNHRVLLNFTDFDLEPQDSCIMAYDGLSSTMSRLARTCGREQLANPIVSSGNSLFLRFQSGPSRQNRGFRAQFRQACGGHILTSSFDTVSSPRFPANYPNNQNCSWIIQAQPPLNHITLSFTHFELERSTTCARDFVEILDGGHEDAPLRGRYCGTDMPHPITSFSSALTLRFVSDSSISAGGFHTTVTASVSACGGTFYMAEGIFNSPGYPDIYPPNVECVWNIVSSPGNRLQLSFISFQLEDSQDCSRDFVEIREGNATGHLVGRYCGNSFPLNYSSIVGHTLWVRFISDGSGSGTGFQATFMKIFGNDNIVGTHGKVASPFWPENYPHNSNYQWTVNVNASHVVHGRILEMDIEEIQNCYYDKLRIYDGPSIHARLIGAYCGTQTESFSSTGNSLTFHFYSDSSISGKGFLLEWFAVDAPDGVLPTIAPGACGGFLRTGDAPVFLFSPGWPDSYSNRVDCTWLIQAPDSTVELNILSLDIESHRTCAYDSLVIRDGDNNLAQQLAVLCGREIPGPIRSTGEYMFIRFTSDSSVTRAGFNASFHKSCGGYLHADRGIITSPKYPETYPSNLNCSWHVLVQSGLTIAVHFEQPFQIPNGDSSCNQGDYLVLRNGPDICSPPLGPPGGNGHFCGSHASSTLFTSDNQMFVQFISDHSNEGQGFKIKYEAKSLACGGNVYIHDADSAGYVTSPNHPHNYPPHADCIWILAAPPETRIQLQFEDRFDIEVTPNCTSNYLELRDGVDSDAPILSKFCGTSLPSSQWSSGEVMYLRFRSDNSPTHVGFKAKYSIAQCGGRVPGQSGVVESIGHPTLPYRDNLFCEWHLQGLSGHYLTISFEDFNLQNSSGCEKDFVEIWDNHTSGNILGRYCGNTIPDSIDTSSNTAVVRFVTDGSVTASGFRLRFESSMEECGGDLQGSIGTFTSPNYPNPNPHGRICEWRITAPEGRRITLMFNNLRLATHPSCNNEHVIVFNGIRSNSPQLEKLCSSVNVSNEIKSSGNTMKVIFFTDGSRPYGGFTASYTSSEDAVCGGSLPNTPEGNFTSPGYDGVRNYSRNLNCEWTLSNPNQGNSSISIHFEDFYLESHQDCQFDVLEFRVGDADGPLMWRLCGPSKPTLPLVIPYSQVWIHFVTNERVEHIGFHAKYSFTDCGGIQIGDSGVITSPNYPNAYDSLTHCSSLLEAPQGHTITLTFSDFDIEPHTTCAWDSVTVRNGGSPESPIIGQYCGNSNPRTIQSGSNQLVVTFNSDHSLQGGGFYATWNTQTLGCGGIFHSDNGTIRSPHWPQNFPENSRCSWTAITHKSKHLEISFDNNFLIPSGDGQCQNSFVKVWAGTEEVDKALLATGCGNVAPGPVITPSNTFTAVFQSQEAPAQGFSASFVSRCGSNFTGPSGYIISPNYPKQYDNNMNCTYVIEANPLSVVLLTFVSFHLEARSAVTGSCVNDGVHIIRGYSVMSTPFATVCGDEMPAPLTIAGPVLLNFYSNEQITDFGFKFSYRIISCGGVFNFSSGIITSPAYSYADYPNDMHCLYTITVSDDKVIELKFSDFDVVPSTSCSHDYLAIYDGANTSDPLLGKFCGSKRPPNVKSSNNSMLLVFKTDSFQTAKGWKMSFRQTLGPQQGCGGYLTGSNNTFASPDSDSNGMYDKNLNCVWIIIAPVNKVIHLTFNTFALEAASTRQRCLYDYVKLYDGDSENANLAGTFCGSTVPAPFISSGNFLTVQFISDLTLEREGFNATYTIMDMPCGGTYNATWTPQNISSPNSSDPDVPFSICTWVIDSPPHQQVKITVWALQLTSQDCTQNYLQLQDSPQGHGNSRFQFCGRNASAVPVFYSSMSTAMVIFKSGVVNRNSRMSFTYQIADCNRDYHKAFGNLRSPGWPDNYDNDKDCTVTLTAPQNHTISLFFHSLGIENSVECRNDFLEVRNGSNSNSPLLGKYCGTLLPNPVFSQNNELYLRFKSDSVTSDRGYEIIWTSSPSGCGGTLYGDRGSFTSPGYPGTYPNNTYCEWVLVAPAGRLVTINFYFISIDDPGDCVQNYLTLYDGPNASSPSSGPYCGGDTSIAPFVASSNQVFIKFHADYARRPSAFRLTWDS", "sequence (P27352 19-417, species assumed)": "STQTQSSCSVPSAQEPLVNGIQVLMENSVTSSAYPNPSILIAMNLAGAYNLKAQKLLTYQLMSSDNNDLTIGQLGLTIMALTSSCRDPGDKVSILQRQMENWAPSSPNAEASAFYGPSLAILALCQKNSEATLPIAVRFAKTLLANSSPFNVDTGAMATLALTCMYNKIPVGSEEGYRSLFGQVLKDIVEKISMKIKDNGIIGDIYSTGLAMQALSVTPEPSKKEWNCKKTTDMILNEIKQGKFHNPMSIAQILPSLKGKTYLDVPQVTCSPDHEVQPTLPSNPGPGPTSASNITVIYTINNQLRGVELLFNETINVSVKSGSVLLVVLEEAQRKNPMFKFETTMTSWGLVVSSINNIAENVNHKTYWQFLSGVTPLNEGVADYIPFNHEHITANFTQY", "details": "binds CUB domains 5-8, Ca2+ dependent; read-out: Kd of IF-B12 for cubilin; cited from earlier work"}},
  "note": "pKd: −log10 of the molar value.",
  "data": [
    {"molecule": "NCCCC[C@H](N)C(=O)O", "note": "[1-lysine, L-lysine]", "values": [
      {"measurement": "decrease of kidney uptake", "setting": "[1]", "value": "approximately 95%"}
    ]},
    {"molecule": "IF405: intrinsic factor tagged with Alexa Fluor 405", "values": [
      {"measurement": "binding, uptake or internalization in BeWo cells", "setting": "[2]", "value": "shows uptake"}
    ]},
    {"molecule": "IF-B12: complex of intrinsic factor, a 50 kDa protein, bound to B12", "values": [
      {"measurement": "pKd", "setting": "cubilin (CUBN)", "value": "~8.30"}
    ]}
  ]
}
